Results published in patent US8835495B2, “Pharmaceutical composition comprising cyclobenzaprine and aceclofenac in association” (Incrementha P, D & I Pesquisa, Desenvolvimento e Inovacao …, priority 2006, dated 2014).
Where a name gives a salt, the structure may show the parent alone.

Assay: Comparative stability study of cyclobenzaprine hydrochloride and aceclofenac together and isolated (opened glass flasks, oven)
Assay type: physicochemical
Conditions: oven at 50° C. and 90% relative moisture, after 30 days

SMILES	content of active ingredient(s) by chromatographic analysis
O=C(O)COC(=O)Cc1ccccc1Nc1c(Cl)cccc1Cl [aceclofenac, 2-[2-[2-[(2,6-dichlorophenyl)amino]phenyl]acetyl]oxyacetic acid]	remained unaltered
CN(C)CCC=C1c2ccccc2C=Cc2ccccc21 [cyclobenzaprine hydrochloride, 3-(5H-dibenzo[a,d]cyclohepten-5-ylidene)-N,N-dimethyl-1-propanamine]	remained unaltered
